Test results reported in patent US11401247B2, “Thiazole-5-carboxylic acid derivative and preparation method and use thereof” (XIANGBEI WELMAN PHARMACEUTICAL CO., LTD, priority 2018, dated 2022).
Like-named read-outs stand apart in the source and are kept apart here.

Assays:
hyperuricemia rats [1] = experiment: pharmacodynamic screening in rat hyperuricemia model (exogenous uric acid administered, uric acid decomposition inhibited); type: in vivo, SD rats; conditions: for Serum uric acid level, Value after 3 h of drug administration: 3 h after first administration, model group 174.4 ± 39.9, blank 53.9 ± 12.8; for uric acid-lowering effect (in words): 3 h after drug administration, febuxostat and ethyl ester 14 mg/kg oral; for uric acid-lowering effect (in words) / p, uric acid level 3 h after drug administration compared with the blank group: F compounds 10 mg/kg; for p, uric acid level 3 h after drug administration compared with the blank group: febuxostat 14 mg/kg oral
ICR mice = conditions: for Autopsy results of survival animals: 3000 mg/kg ig; for Abnormal reactions within 12 hours from ig administration: F compounds 3000 mg/kg; for Number of dead animals: 10 mice; for death, preliminary experiments / toxic reactions, preliminary experiments / LD50/Maximum dose: mice; for death, preliminary experiments / toxic reactions, preliminary experiments: intragastric 1600 mg/kg; for LD50/Maximum dose: ig once, 14 days observation, Bliss method, febuxostat: LD50, F compounds: maximum administration dose, no deaths
in vivo = conditions: mouse, po
hyperuricemia rats [2] = experiment: dose-effect relationship study in rat hyperuricemia model; type: in vivo, SD rats; conditions: 3 h after first administration, model group 226.2 ± 35.2, blank 37.4 ± 5.1
Description: In order to further study the pharmacological activity of the compounds of the present disclosure, as well as the relationship between the activity and the dose, this example selected several compounds of the present disclosure to conduct a dose-effect relationship study in a rat model, in which exogenous uric acid was administered and uric acid decomposition was inhibited simultaneously. A positive drug was used as a control.
1. Experimental animals: Male SPF grade SD rats weighing 110-150 grams. […] The animals were free to drink and eat. All cages were sterilized at 121° C., feed was sterilized by irradiation, and water was sterilized purified water.
2. Experimental drugs: F-1C, F-2C, F-3A, 1.0 g for each compound; febuxostat (positive drug) 1.0 g; febuxostat ethyl ester (ethyl 2-[3-cyano-4-isobutoxyphenyl]-4-methylthiazole-5-carboxylate) 1.0 g;
3.1 Formulation of F-1C, F-2C, F-3A: Tor each of the compounds, take 100 mg, add 20 ml of 0.5% sodium carboxymethyl cellulose and grind, and then dilute to 100 ml.
3.2 Take 100 mg of febuxostat, add 20 ml of 0.5% sodium carboxymethyl cellulose and grind, and then dilute to 100 ml.
Except the blank group, the rest rats were modeled for 15 days and then their serum uric acid levels were detected. The rats were equally divided into several groups according to the detected uric acid levels thereof.
F-1C, F-2C and F-3A groups: each compound was taken orally at 3 doses, i.e., 2.5, 5 and 10 mg/kg; QD; and 10 animals for each dose group.
Febuxostat group: oral administration of 10 mg/kg, QD, and 10 animals.
Febuxostat ethyl ester group: oral administration of 10 mg/kg, QD, and 10 animals.
The blank group was not administrated with any drug. Each of the rest groups was orally administrated with oteracil potassium 1 g/kg and uric acid 0.3 g/kg and intraperitoneally injected with 0.1 g/kg uric acid (dissolved in 0.5% sodium carboxymethyl cellulose), once a day on schedule, for 15 days. 0.5 ml of blood samples was drawn from orbit before the experiment and […] after the modelling, respectively, to separated serum for determining serum uric acid levels.
After successful modeling, the rats were equally divided into several groups according to the serum uric acid values thereof, and then were intragastrically administrated with the test drugs. Three hours after the first administration, 0.5 ml of orbital venous blood was drawn from the orbit of the rats, centrifuged at 3000 RPM for 15 min, to obtain for determining the serum uric acid level of each rat.
Data were expressed by mean±standard deviation (′x±SD), and analyzed by Excel 7.0 and SPPS 13.0 for Windows software. Q-test was used for the comparison between groups, and the self-paired t-test was used for the comparison of a group before and after administration. It indicated significant difference when P<0.05.

[3] = formal test, all dose groups, febuxostat high-dose group
[4] = formal test, febuxostat high-dose group

| Compound | Serum uric acid level, Value after 3 h of drug administration (hyperuricemia rats [1]; 10 mg/kg oral) | uric acid-lowering effect (in words) (hyperuricemia rats [1]) | p, uric acid level 3 h after drug administration compared with the blank group (hyperuricemia rats [1]) | Autopsy results of survival animals (ICR mice; formal test) | animal deaths within 24 hours from the administration (ICR mice; [3]) | Abnormal reactions within 12 hours from ig administration (ICR mice; [4]) | Number of dead animals (ICR mice; ig 3000 mg/kg) | death, preliminary experiments (ICR mice) | toxic reactions, preliminary experiments (ICR mice) | LD50 at 14 days (in vivo) [mg/kg] | LD50 at 14 days (in vivo; 3000 mg/kg) [mg/kg] | Serum uric acid content, Value after 3 h of drug administration (hyperuricemia rats [2]; 10 mg/kg oral) | further results |
| --- | --- | --- | --- | --- | --- | --- | --- | --- | --- | --- | --- | --- | --- |
| Cc1nc(-c2ccc(OCC(C)C)c(C#N)c2)sc1C(=O)OCCCN(C)CCCO [Compound F-3B] | 66.3 ± 17.1^a3b3 μmol/L | very obvious uric acid-lowering effects | no significant difference | No obvious abnormalities were observed in the organs | no animal deaths were observed | no abnormalities were observed | 0 | no animal died | no obvious toxicity symptom was observed | 3000 | ≥ 3000 | – | – |
| Cc1nc(-c2ccc(OCC(C)C)c(C#N)c2)sc1C(=O)NCC(=O)O [Compound F-2A] | 78.3 ± 25.1^a3b3c2 μmol/L | – | < 0.01 | No obvious abnormalities were observed in the organs | no animal deaths were observed | no abnormalities were observed | 0 | no animal died | no obvious toxicity symptom was observed | 3000 | ≥ 3000 | – | – |
| Cc1nc(-c2ccc(OCC(C)C)c(C#N)c2)sc1C(=O)OCCN(C)CCO [Compound F-3A] | 64.1 ± 16.1^a3b3 μmol/L | very obvious uric acid-lowering effects | no significant difference | No obvious abnormalities were observed in the organs | no animal deaths were observed | no abnormalities were observed | 0 | no animal died | no obvious toxicity symptom was observed | 3000 | ≥ 3000 | 82.3 ± 16.8^a3, b3, c3 μmol/L | Serum uric acid content, Value after 3 h of drug administration (hyperuricemia rats [2]; 2.5 mg/kg oral): 173.4 ± 32.7^a3, b3 μmol/L; Serum uric acid content, Value after 3 h of drug administration (hyperuricemia rats [2]; 5 mg/kg oral): 137.6 ± 24.3^a3, b3 μmol/L |
| Cc1nc(-c2ccc(OCC(C)C)c(C#N)c2)sc1C(=O)NC(C)C(=O)O (stereo not shown) [Compound F-2B] | 70.3 ± 16.4^a3b3c1 μmol/L | – | – | No obvious abnormalities were observed in the organs | no animal deaths were observed | no abnormalities were observed | 0 | no animal died | no obvious toxicity symptom was observed | – | – | – | LD50/Maximum dose (ICR mice): 3000 mg/kg |
| Cc1nc(-c2ccc(OCC(C)C)c(C#N)c2)sc1C(=O)N1CCC[C@H]1C(=O)O [Compound F-2D] | 69.1 ± 23.4^a3b3c1 μmol/L | – | – | No obvious abnormalities were observed in the organs | no animal deaths were observed | no abnormalities were observed | 0 | no animal died | no obvious toxicity symptom was observed | 3000 | ≥ 3000 | – | – |
| Cc1nc(-c2ccc(OCC(C)C)c(C#N)c2)sc1C(=O)NC1C(O)OC(CO)C(O)C1O (stereo not shown) [Compound F-4A] | 71.4 ± 19.6^a3b3c1 μmol/L | – | – | No obvious abnormalities were observed in the organs | – | no abnormalities were observed | 0 | – | no obvious toxicity symptom was observed | 3000 | ≥ 3000 | – | animal deaths within 24 hours from the administration (ICR mice; mouse, in vivo): no animal deaths were observed |
| Cc1nc(-c2ccc(OCC(C)C)c(C#N)c2)sc1C(=O)OCCO [Compound F-1A] | 71.0 ± 24.4^a3b3c1 μmol/L | – | – | No obvious abnormalities were observed in the organs | no animal deaths were observed | no abnormalities were observed | 0 | no animal died | no obvious toxicity symptom was observed | 3000 | ≥ 3000 | – | – |
| Cc1nc(-c2ccc(OCC(C)C)c(C#N)c2)sc1C(=O)O [Febuxostat, 2-[3-cyano-4-isobutoxyphenyl]-4-methylthiazole-5-carboxylic acid, reference compound] | – | good effect on lowering uric acid | < 0.001 | – | several animals of the high-dose group of febuxotan died | – | – | caused death in several mice | – | 701 ± 47.6 | – | 140.8 ± 33.5^a3, b3 μmol/L | Serum uric acid level, Value after 3 h of drug administration (hyperuricemia rats [1]; 14 mg/kg oral): 86.6 ± 17.5^a3b3c3 μmol/L; Number of dead animals (ICR mice; ig 327.7 mg/kg): 0; Number of dead animals (ICR mice; ig 409.6 mg/kg): 0; Number of dead animals (ICR mice; ig 512 mg/kg): 1; Number of dead animals (ICR mice; ig 640 mg/kg): 3; Number of dead animals (ICR mice; ig 800 mg/kg): 6; Cause of death (ICR mice; mice after ig administration): toxicity to the urinary system |
| Cc1nc(-c2ccc(OCC(C)C)c(C#N)c2)sc1C(=O)NC(CC(=O)O)C(=O)O (stereo not shown) [Compound F-2C] | 68.6 ± 19.2^a3b3c1 μmol/L | – | – | No obvious abnormalities were observed in the organs | no animal deaths were observed | no abnormalities were observed | 0 | no animal died | no obvious toxicity symptom was observed | – | – | 107.3 ± 21.2^a3, b3, c3 μmol/L | LD50/Maximum dose (ICR mice): 3000 mg/kg; Serum uric acid content, Value after 3 h of drug administration (hyperuricemia rats [2]; 2.5 mg/kg oral): 172.7 ± 33.9^a3 μmol/L; Serum uric acid content, Value after 3 h of drug administration (hyperuricemia rats [2]; 5 mg/kg oral): 131.9 ± 29.7^a3, b3 μmol/L |
| CCOC(=O)c1sc(-c2ccc(OCC(C)C)c(C#N)c2)nc1C [Febuxostat ethyl ester, ethyl 2-[3-cyano-4-isobutoxyphenyl]-4-methylthiazole-5-carboxylate, reference compound] | – | inferior to febuxostat | – | – | – | – | – | – | – | – | – | 177.3 ± 38.6^a3 μmol/L | Serum uric acid level, Value after 3 h of drug administration (hyperuricemia rats [1]; 14 mg/kg oral): 113.9 ± 24.9^a3b3c3 μmol/L |
| Cc1nc(-c2ccc(OCC(C)C)c(C#N)c2)sc1C(=O)OCC(O)CO (stereo not shown) [Compound F-1B] | 67.5 ± 19.4^a3b3 μmol/L | very obvious uric acid-lowering effects | no significant difference | No obvious abnormalities were observed in the organs | – | no abnormalities were observed | 0 | – | no obvious toxicity symptom was observed | 3000 | ≥ 3000 | – | animal deaths within 24 hours from the administration (ICR mice; mouse, in vivo): no animal deaths were observed |
